Data published in patent US12098144B2, “Piperazine indazole glucocorticoid receptor antagonists” (Corcept Therapeutics Incorporated, priority 2021, dated 2024).

Target: T1, glucocorticoid receptor (Homo sapiens, UniProt P04150)
T1 construct: endogenous in cells; ATCC cat
T1 sequence (P04150 1-777): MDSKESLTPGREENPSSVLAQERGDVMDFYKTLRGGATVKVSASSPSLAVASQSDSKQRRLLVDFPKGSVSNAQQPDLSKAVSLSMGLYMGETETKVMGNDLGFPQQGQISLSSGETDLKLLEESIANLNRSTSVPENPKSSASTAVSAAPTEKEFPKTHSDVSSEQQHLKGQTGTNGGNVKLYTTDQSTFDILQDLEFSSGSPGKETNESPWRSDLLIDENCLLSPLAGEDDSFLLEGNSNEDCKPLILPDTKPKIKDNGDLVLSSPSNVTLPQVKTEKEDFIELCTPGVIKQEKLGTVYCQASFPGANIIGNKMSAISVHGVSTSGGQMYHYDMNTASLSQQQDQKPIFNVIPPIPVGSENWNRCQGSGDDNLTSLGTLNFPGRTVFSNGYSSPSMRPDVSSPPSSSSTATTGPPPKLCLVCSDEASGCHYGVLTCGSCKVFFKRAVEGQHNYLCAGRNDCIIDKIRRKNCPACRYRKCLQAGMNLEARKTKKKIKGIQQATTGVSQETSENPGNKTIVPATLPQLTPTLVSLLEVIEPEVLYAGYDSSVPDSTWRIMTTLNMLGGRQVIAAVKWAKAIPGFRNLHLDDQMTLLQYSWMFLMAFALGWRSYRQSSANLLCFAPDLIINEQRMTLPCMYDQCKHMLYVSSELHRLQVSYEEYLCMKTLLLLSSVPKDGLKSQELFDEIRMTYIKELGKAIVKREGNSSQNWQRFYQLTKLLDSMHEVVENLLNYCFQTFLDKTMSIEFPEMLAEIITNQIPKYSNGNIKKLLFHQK
Assay: Hep G2 TAT IC50: inhibition of dexamethasone-induced TAT in HepG2 cells (384 well)
Format: cell-based
Procedure: Glucocorticoid mediated activation of TAT occurs by transactivation of glucocorticoid response elements in the TAT promoter by glucocorticoid receptor/agonist complex.
HepG2 cells were cultured using MEME media supplemented with 10% (v/v) foetal bovine serum, 2 mM L-glutamine, 1% (v/v) NEAA, and 1% (v/v) penstrep, at 37° C., 5%/95% (v/v) CO2/air.
Compounds were diluted from a 10 mM stock via an Echo Acoustic liquid handler into 10 μL assay media to generate a 10-point half-log dilution curve.
HepG2 cells were then lysed with 8 μL of cell lysis buffer containing a protease inhibitor cocktail for 15 minutes at 25° C. […] After a 2-hour incubation at 37° C. the reaction was terminated by the addition of 8 μL of 5 M aqueous potassium hydroxide solution, and the plates incubated for a further 30 minutes at 37° C.
[compound] and fitting the data to a 4-parameter logistic equation.

| IC50 [µM] | Structure (SMILES) |
| --- | --- |
| 2.88 | COc1ccc(-n2ncc3cc(C4CN(S(=O)(=O)c5cnn(C)n5)CCN4CCC(F)(F)F)c(C)cc32)cc1 (stereo not shown) [Example 205, 1-(4-methoxyphenyl)-6-methyl-5-(4-(2-methyltriazol-4-yl)sulfonyl-1-(3,3,3-trifluoropropyl)piperazin-2-yl)indazole] |
| 4.03 | Cc1ncc(S(=O)(=O)N2CCCN(CCC(F)(F)F)C(c3cc4cnn(-c5ccc(F)cc5)c4cc3C)C2)s1 (stereo not shown) [Example 191, 5-((3-(1-(4-fluorophenyl)-6-methyl-indazol-5-yl)-4-(3,3,3-trifluoropropyl)-1,4-diazepan-1-yl)sulfonyl)-2-methyl-thiazole] |
| 1.32 | Cc1cc2c(cnn2-c2ccccc2)cc1C1CN(S(=O)(=O)c2cnn(C)n2)CCN1CCC(F)(F)F (stereo not shown) [Example 199, 6-methyl-5-(4-(2-methyltriazol-4-yl)sulfonyl-1-(3,3,3-trifluoropropyl)piperazin-2-yl)-1-phenyl-indazole] |
| 0.284 | Cc1cc2c(cnn2-c2cc(C)c(=O)n(C)c2)cc1C1CN(S(=O)(=O)N(C)C)CCN1CCC(F)(F)F (stereo not shown) [Example 196, 3-(1-(1,5-dimethyl-6-oxo-3-pyridyl)-6-methyl-indazol-5-yl)-N,N-dimethyl-4-(3,3,3-trifluoropropyl)piperazine-1-sulfonamide] |
| 1 | Cc1cc2c(cnn2-c2ccc(=O)n(C)c2)cc1C1CN(S(=O)(=O)c2cccnc2)CCN1CCC(F)(F)F (stereo not shown) [Example 197, 1-methyl-5-(6-methyl-5-(4-(3-pyridylsulfonyl)-1-(3,3,3-trifluoropropyl)piperazin-2-yl)indazol-1-yl)pyridin-2-one] |
| 2.75 | Cc1cc2c(cnn2-c2ccc(F)cc2)cc1C1CN(S(=O)(=O)c2cnn(C)n2)CCCN1CCC(F)(F)F (stereo not shown) [Example 173, 1-(4-fluorophenyl)-6-methyl-5-(4-(2-methyltriazol-4-yl)sulfonyl-1-(3,3,3-trifluoropropyl)-1,4-diazepan-2-yl)indazole] |
| 1.66 | COc1cc2c(cnn2-c2ccc(F)cc2)cc1C1CN(S(=O)(=O)c2csc(C)n2)CCN1CC1CCCC1 (stereo not shown) [Example 189, 4-(4-(cyclopentylmethyl)-3-(1-(4-fluorophenyl)-6-methoxy-indazol-5-yl)piperazin-1-yl)sulfonyl-2-methyl-thiazole] |
| 3.85 | Cc1cnnc(-n2ncc3cc(C4CN(S(=O)(=O)c5cnn(C)n5)CCN4CCC(F)(F)F)c(C)cc32)c1 (stereo not shown) [Example 204, 6-methyl-1-(5-methylpyridazin-3-yl)-5-(4-(2-methyltriazol-4-yl)sulfonyl-1-(3,3,3-trifluoropropyl)piperazin-2-yl)indazole] |
| 1.66 | Cc1cc2c(cnn2-c2ccc(F)cc2)cc1C1CN(S(=O)(=O)N(C)C)CCN1CCC(F)(F)F (single isomer, unassigned) [Example 181, 3-(1-(4-fluorophenyl)-6-methyl-indazol-5-yl)-N,N-dimethyl-4-(3,3,3-trifluoropropyl)piperazine-1-sulfonamide] |
| 3.43 | Cc1cc2c(cnn2-c2ccc(F)cc2)cc1C1CN(S(=O)(=O)N2CCOCC2)CCN1CC1CCC1 (single isomer, unassigned) [Example 178, 4-(4-(cyclobutylmethyl)-3-[1-(4-fluorophenyl)-6-methyl-indazol-5-yl]piperazin-1-yl)sulfonylmorpholine] |
| 2.54 | O=S(=O)(N1CCOCC1)N1CCN(CCC(F)(F)F)C(c2cc3cnn(-c4ccc(F)cc4)c3cc2Cl)C1 (stereo not shown) [Example 210, 4-(3-(6-chloro-1-(4-fluorophenyl)indazol-5-yl)-4-(3,3,3-trifluoropropyl)piperazin-1-yl)sulfonylmorpholine] |
| 9.33 | Cc1cc(-n2ncc3cc(C4CN(S(=O)(=O)c5cnn(C)n5)CCN4CCC(F)(F)F)c(C)cc32)ncn1 (stereo not shown) [Example 203, 6-methyl-1-(6-methylpyrimidin-4-yl)-5-(4-(2-methyltriazol-4-yl)sulfonyl-1-(3,3,3-trifluoropropyl)piperazin-2-yl)indazole] |
| 2.09 | Cc1cc2c(cnn2-c2ccc(F)cc2)cc1C1CN(S(=O)(=O)N2CCOCC2)CCN1CC1CCCC1 (single isomer, unassigned) [Example 180, 4-(4-(cyclopentylmethyl)-3-(1-(4-fluorophenyl)-6-methyl-indazol-5-yl)piperazin-1-yl)sulfonylmorpholine] |
| 2.46 | Cc1cc2c(cnn2-c2ccc(F)cc2)cc1C1CN(S(=O)(=O)N2CCOCC2)CCN1CCC(F)(F)F (single isomer, unassigned) [Example 177, 4-(3-(1-(4-fluorophenyl)-6-methyl-indazol-5-yl)-4-(3,3,3-trifluoropropyl)piperazin-1-yl)sulfonylmorpholine] |
| 2.79 | COc1cc2c(cnn2-c2ccc(F)cc2)cc1C1CN(S(=O)(=O)N2CCOCC2)CCN1CC1CC(F)(F)C1 (stereo not shown) [Example 193, 4-(4-((3,3-difluorocyclobutyl)methyl)-3-(1-(4-fluorophenyl)-6-methoxy-indazol-5-yl)piperazin-1-yl)sulfonylmorpholine] |
| 0.253 | Cc1cc2c(cnn2-c2cc(C)c(=O)n(C)c2)cc1C1CN(S(=O)(=O)c2ccccn2)CCN1CCC(F)(F)F (stereo not shown) [Example 195, 1,3-dimethyl-5-(6-methyl-5-(4-(2-pyridylsulfonyl)-1-(3,3,3-trifluoropropyl)piperazin-2-yl)indazol-1-yl)pyridin-2-one] |
| 3.16 | COc1cc2c(cnn2-c2ccc(F)cc2)cc1C1CN(S(=O)(=O)N2CCOCC2)CCN1CCC(F)(F)F (stereo not shown) [Example 192, 4-(3-(1-(4-fluorophenyl)-6-methoxy-indazol-5-yl)-4-(3,3,3-trifluoropropyl)piperazin-1-yl)sulfonylmorpholine] |
| 2.75 | Cc1cc2c(cnn2-c2ccc(F)cc2)cc1C1CN(S(=O)(=O)N2CCOCC2)CCN1Cc1ccccc1 (single isomer, unassigned) [Example 214, 4-(4-benzyl-3-(1-(4-fluorophenyl)-6-methyl-indazol-5-yl)piperazin-1-yl)sulfonylmorpholine] |
| 0.191 | CCn1cc(S(=O)(=O)N2CCN(CCC(F)(F)F)C(c3cc4cnn(-c5cc(C)c(=O)n(C)c5)c4cc3C)C2)cn1 (stereo not shown) [Example 174, 5-(5-(4-(1-ethylpyrazol-4-yl)sulfonyl-1-(3,3,3-trifluoropropyl)piperazin-2-yl)-6-methyl-indazol-1-yl)-1,3-dimethyl-pyridin-2-one] |
| 2.02 | Cc1cc2c(cnn2-c2ccc(F)cc2)cc1C1CN(S(=O)(=O)N2CCOCC2)CCN1CC1CC(F)(F)C1 (single isomer, unassigned) [Example 179, 4-(4-((3,3-difluorocyclobutyl)methyl)-3-(1-(4-fluorophenyl)-6-methyl-indazol-5-yl)piperazin-1-yl)sulfonylmorpholine] |
| 1.07 | Cc1cc2c(cnn2-c2ccc(F)cc2)cc1C1CN(S(=O)(=O)c2cccnn2)CCN1CC(C)C (single isomer, unassigned) [Example 190, 1-(4-fluorophenyl)-5-(1-isobutyl-4-pyridazin-3-ylsulfonyl-piperazin-2-yl)-6-methyl-indazole] |
| 0.841 | Cc1cc2c(cnn2-c2ccc(F)cc2)cc1C1CN(S(=O)(=O)c2cccnn2)CCN1CCC(F)(F)F (single isomer, unassigned) [Example 176, 1-(4-fluorophenyl)-6-methyl-5-(4-pyridazin-3-ylsulfonyl-1-(3,3,3-trifluoropropyl)piperazin-2-yl)indazole] |
